Laboratory results from US7524930B2, “Tumor antigen” (Green Peptide Co., Ltd, priority 2003, dated 2009).

Assays:
[1] = tested on: peripheral blood mononuclear cells derived from a cancer patient; assay: CTL induction by peptide from autologous PBMC of cancer patient, IFN-γ production on recognition of target cells (Example 5); format: cell-based, human; conditions: for Recognition of tumor cells by PBMC stimulated in vitro with peptide (IFN-γ production): SW620, CA9-22 and Panc-1 HLA-A2+ tumor cells, result in words; for IFN-γ production from peripheral blood mononuclear cells in recognition of target cells: PBMC stimulated with 10 μM peptide
From the text: Among the peptides that were able to enhance IFN-γ production from the OK-CTLp or OK-CTL clone in Example 4, those from P1 to P19 were examined for their ability to induce CTL from peripheral blood mononuclear cells derived from a cancer patient. The method for inducing CTL by a peptide was according to the well-known method (J. Exp. Med., 187:277-288, 1998; Cancer Res., 59:4056-4063, 1999.) Specifically, autologous peripheral blood mononuclear cells (PBMC) derived from a cancer patient, from whom OK-CTLp was obtained, were incubated together with the peptide (10 μM.) The cells were re-stimulated at day 10 and 14 after the start of culturing, using autologous PBMCs as an antigen presenting cell (APC) which were pulsed with 10 μM of the same peptide for 2 h and exposed to irradiation (30 gray.) At day 21 after the start of culturing, the cells were collected to test for surface phenotype. In addition, the cells were examined for the recognition of various target cells, using IFN-γ production measured by ELISA when they were cultured together with the target cells as an indicator. As a target cells, SW620 cell, CA9-22 cell, and Panc-1 cell, which are the HLA-A2^+ tumor cells, were used.

[2] = tested on: peripheral blood mononuclear cells derived from a cancer patient; assay: as above; format: cell-based, human; conditions: PBMC stimulated with 10 μM peptide

## CLYGNVEKV (Designed peptide having an ability to activate HLA-A2 restricted Cytotoxic T lymphocytes) [Peptide P7, Gene 2 (HNRPL) 404-412]
[1]
  Recognition of tumor cells by PBMC stimulated in vitro with peptide (IFN-γ production): induced CTL recognizing any one of the HLA-A2^+ tumor cells
[1]; target CA9-22 (HLA-A0207/24)
  IFN-γ production from peripheral blood mononuclear cells in recognition of target cells: 0 pg/mL
[1]; target Panc-1 (HLA-A0201/11)
  IFN-γ production from peripheral blood mononuclear cells in recognition of target cells: 54 pg/mL
[1]; target SW620 (HLA-A0201/24)
  IFN-γ production from peripheral blood mononuclear cells in recognition of target cells: 344 pg/mL
[2]; target COLO320 (HLA-A24/24)
  IFN-γ production from peripheral blood mononuclear cells in recognition of target cells: 0 pg/mL
[2]; target QG56 (HLA-A26/26)
  IFN-γ production from peripheral blood mononuclear cells in recognition of target cells: 0 pg/mL
[2]; target RERF-LC-MS (HLA-A11/11)
  IFN-γ production from peripheral blood mononuclear cells in recognition of target cells: 0 pg/mL

## DLLSHAFFA [Peptide P18]
[1]
  Recognition of tumor cells by PBMC stimulated in vitro with peptide (IFN-γ production): produced IFN-γ in a significant amount
[1]; target CA9-22 (HLA-A0207/24)
  IFN-γ production from peripheral blood mononuclear cells in recognition of target cells: 70 pg/mL
[1]; target Panc-1 (HLA-A0201/11)
  IFN-γ production from peripheral blood mononuclear cells in recognition of target cells: >1000 pg/mL
[1]; target SW620 (HLA-A0201/24)
  IFN-γ production from peripheral blood mononuclear cells in recognition of target cells: >1000 pg/mL
[2]; target COLO320 (HLA-A24/24)
  IFN-γ production from peripheral blood mononuclear cells in recognition of target cells: 0 pg/mL
[2]; target QG56 (HLA-A26/26)
  IFN-γ production from peripheral blood mononuclear cells in recognition of target cells: 29 pg/mL
[2]; target RERF-LC-MS (HLA-A11/11)
  IFN-γ production from peripheral blood mononuclear cells in recognition of target cells: 0 pg/mL

## FMFGQKLNV (Designed peptide having an ability to activate HLA-A2 restricted Cytotoxic T lymphocytes) [Peptide P8, Gene 2 (HNRPL) 443-451]
[1]
  Recognition of tumor cells by PBMC stimulated in vitro with peptide (IFN-γ production): produced IFN-γ in a significant amount
[1]; target CA9-22 (HLA-A0207/24)
  IFN-γ production from peripheral blood mononuclear cells in recognition of target cells: 165 pg/mL
[1]; target Panc-1 (HLA-A0201/11)
  IFN-γ production from peripheral blood mononuclear cells in recognition of target cells: 186 pg/mL
[1]; target SW620 (HLA-A0201/24)
  IFN-γ production from peripheral blood mononuclear cells in recognition of target cells: 142 pg/mL
[2]; target COLO320 (HLA-A24/24)
  IFN-γ production from peripheral blood mononuclear cells in recognition of target cells: 0 pg/mL
[2]; target QG56 (HLA-A26/26)
  IFN-γ production from peripheral blood mononuclear cells in recognition of target cells: 0 pg/mL
[2]; target RERF-LC-MS (HLA-A11/11)
  IFN-γ production from peripheral blood mononuclear cells in recognition of target cells: 26 pg/mL

## ILGELREKV (Designed peptide having an ability to activate HLA-A2 restricted Cytotoxic T lymphocytes) [Peptide P11, Gene 3 (WHSC2) 141-149]
[1]
  Recognition of tumor cells by PBMC stimulated in vitro with peptide (IFN-γ production): produced IFN-γ in a significant amount
[1]; target CA9-22 (HLA-A0207/24)
  IFN-γ production from peripheral blood mononuclear cells in recognition of target cells: 62 pg/mL
[1]; target Panc-1 (HLA-A0201/11)
  IFN-γ production from peripheral blood mononuclear cells in recognition of target cells: >1000 pg/mL
[1]; target SW620 (HLA-A0201/24)
  IFN-γ production from peripheral blood mononuclear cells in recognition of target cells: 893 pg/mL
[2]; target COLO320 (HLA-A24/24)
  IFN-γ production from peripheral blood mononuclear cells in recognition of target cells: 0 pg/mL
[2]; target QG56 (HLA-A26/26)
  IFN-γ production from peripheral blood mononuclear cells in recognition of target cells: 0 pg/mL
[2]; target RERF-LC-MS (HLA-A11/11)
  IFN-γ production from peripheral blood mononuclear cells in recognition of target cells: 0 pg/mL

## ILPRKHHRI (Designed peptide having an ability to activate HLA-A2 restricted Cytotoxic T lymphocytes) [Peptide P5, Gene 1 (UBE2V) 208-216]
[1]
  Recognition of tumor cells by PBMC stimulated in vitro with peptide (IFN-γ production): produced IFN-γ in a significant amount
[1]; target CA9-22 (HLA-A0207/24)
  IFN-γ production from peripheral blood mononuclear cells in recognition of target cells: 96 pg/mL
[1]; target Panc-1 (HLA-A0201/11)
  IFN-γ production from peripheral blood mononuclear cells in recognition of target cells: 638 pg/mL
[1]; target SW620 (HLA-A0201/24)
  IFN-γ production from peripheral blood mononuclear cells in recognition of target cells: 500 pg/mL
[2]; target COLO320 (HLA-A24/24)
  IFN-γ production from peripheral blood mononuclear cells in recognition of target cells: 38 pg/mL
[2]; target QG56 (HLA-A26/26)
  IFN-γ production from peripheral blood mononuclear cells in recognition of target cells: 0 pg/mL
[2]; target RERF-LC-MS (HLA-A11/11)
  IFN-γ production from peripheral blood mononuclear cells in recognition of target cells: 0 pg/mL

## LLLLARWEDT (Designed peptide having an ability to activate HLA-A2 restricted Cytotoxic T lymphocytes) [Peptide P2, Gene 1 (UBE2V) 64-73]
[1]
  Recognition of tumor cells by PBMC stimulated in vitro with peptide (IFN-γ production): induced CTL recognizing any one of the HLA-A2^+ tumor cells
[1]; target CA9-22 (HLA-A0207/24)
  IFN-γ production from peripheral blood mononuclear cells in recognition of target cells: 0 pg/mL
[1]; target Panc-1 (HLA-A0201/11)
  IFN-γ production from peripheral blood mononuclear cells in recognition of target cells: 0 pg/mL
[1]; target SW620 (HLA-A0201/24)
  IFN-γ production from peripheral blood mononuclear cells in recognition of target cells: 53 pg/mL
[2]; target COLO320 (HLA-A24/24)
  IFN-γ production from peripheral blood mononuclear cells in recognition of target cells: 5 pg/mL
[2]; target QG56 (HLA-A26/26)
  IFN-γ production from peripheral blood mononuclear cells in recognition of target cells: 0 pg/mL
[2]; target RERF-LC-MS (HLA-A11/11)
  IFN-γ production from peripheral blood mononuclear cells in recognition of target cells: 0 pg/mL

## LLQDWHVIL (Designed peptide having an ability to activate HLA-A2 restricted Cytotoxic T lymphocytes) [Peptide P4, Gene 1 (UBE2V) 201-209]
[1]
  Recognition of tumor cells by PBMC stimulated in vitro with peptide (IFN-γ production): induced CTL recognizing any one of the HLA-A2^+ tumor cells
[1]; target CA9-22 (HLA-A0207/24)
  IFN-γ production from peripheral blood mononuclear cells in recognition of target cells: 0 pg/mL
[1]; target Panc-1 (HLA-A0201/11)
  IFN-γ production from peripheral blood mononuclear cells in recognition of target cells: 0 pg/mL
[1]; target SW620 (HLA-A0201/24)
  IFN-γ production from peripheral blood mononuclear cells in recognition of target cells: 60 pg/mL
[2]; target COLO320 (HLA-A24/24)
  IFN-γ production from peripheral blood mononuclear cells in recognition of target cells: 0 pg/mL
[2]; target QG56 (HLA-A26/26)
  IFN-γ production from peripheral blood mononuclear cells in recognition of target cells: 0 pg/mL
[2]; target RERF-LC-MS (HLA-A11/11)
  IFN-γ production from peripheral blood mononuclear cells in recognition of target cells: 0 pg/mL

## MLPLECQYL (Designed peptide having an ability to activate HLA-A2 restricted Cytotoxic T lymphocytes) [Peptide P12, Gene 3 (WHSC2) 157-165]
[1]
  Recognition of tumor cells by PBMC stimulated in vitro with peptide (IFN-γ production): induced CTL recognizing any one of the HLA-A2^+ tumor cells
[1]; target CA9-22 (HLA-A0207/24)
  IFN-γ production from peripheral blood mononuclear cells in recognition of target cells: 0 pg/mL
[1]; target Panc-1 (HLA-A0201/11)
  IFN-γ production from peripheral blood mononuclear cells in recognition of target cells: 197 pg/mL
[1]; target SW620 (HLA-A0201/24)
  IFN-γ production from peripheral blood mononuclear cells in recognition of target cells: 46 pg/mL
[2]; target COLO320 (HLA-A24/24)
  IFN-γ production from peripheral blood mononuclear cells in recognition of target cells: 40 pg/mL
[2]; target QG56 (HLA-A26/26)
  IFN-γ production from peripheral blood mononuclear cells in recognition of target cells: 0 pg/mL
[2]; target RERF-LC-MS (HLA-A11/11)
  IFN-γ production from peripheral blood mononuclear cells in recognition of target cells: 0 pg/mL

## NVLHFFNAPL (Designed peptide having an ability to activate HLA-A2 restricted Cytotoxic T lymphocytes) [Peptide P9, Gene 2 (HNRPL) 501-510]
[1]
  Recognition of tumor cells by PBMC stimulated in vitro with peptide (IFN-γ production): produced IFN-γ in a significant amount
[1]; target CA9-22 (HLA-A0207/24)
  IFN-γ production from peripheral blood mononuclear cells in recognition of target cells: 98 pg/mL
[1]; target Panc-1 (HLA-A0201/11)
  IFN-γ production from peripheral blood mononuclear cells in recognition of target cells: 339 pg/mL
[1]; target SW620 (HLA-A0201/24)
  IFN-γ production from peripheral blood mononuclear cells in recognition of target cells: 194 pg/mL
[2]; target COLO320 (HLA-A24/24)
  IFN-γ production from peripheral blood mononuclear cells in recognition of target cells: 0 pg/mL
[2]; target QG56 (HLA-A26/26)
  IFN-γ production from peripheral blood mononuclear cells in recognition of target cells: 0 pg/mL
[2]; target RERF-LC-MS (HLA-A11/11)
  IFN-γ production from peripheral blood mononuclear cells in recognition of target cells: 27 pg/mL

## QILKGLLFL (Designed peptide having an ability to activate HLA-A2 restricted Cytotoxic T lymphocytes) [Peptide P16, Gene 5 (ppMAPkkk) 290-298]
[1]
  Recognition of tumor cells by PBMC stimulated in vitro with peptide (IFN-γ production): induced CTL recognizing any one of the HLA-A2^+ tumor cells
[1]; target CA9-22 (HLA-A0207/24)
  IFN-γ production from peripheral blood mononuclear cells in recognition of target cells: 147 pg/mL
[1]; target Panc-1 (HLA-A0201/11)
  IFN-γ production from peripheral blood mononuclear cells in recognition of target cells: 113 pg/mL
[1]; target SW620 (HLA-A0201/24)
  IFN-γ production from peripheral blood mononuclear cells in recognition of target cells: 0 pg/mL
[2]; target COLO320 (HLA-A24/24)
  IFN-γ production from peripheral blood mononuclear cells in recognition of target cells: 0 pg/mL
[2]; target QG56 (HLA-A26/26)
  IFN-γ production from peripheral blood mononuclear cells in recognition of target cells: 0 pg/mL
[2]; target RERF-LC-MS (HLA-A11/11)
  IFN-γ production from peripheral blood mononuclear cells in recognition of target cells: 0 pg/mL
